Experimental data taken from patent US20240199576A1, “NOVEL CYCLOPENTA[C]PYRROL NEGATIVE ALLOSTERIC MODULATORS OF NR2B” (Novartis AG, priority 2021, published 2024).

Key:
[1] = target: hERG (Homo sapiens (Human), UniProt Q12809); experiment: hERG Qpatch assay; assay type: cell-based; conditions: hERG expressing CHO-K1 cells, automated patch clamp, tail current
Experimental: This assay was performed by the method described in Skepper et al., J. Med. Chem. 2020, 63, 7773-7816:
hERG expressing cell lines were produced in-house at Novartis using CHO-K1 T-Rex inducible plasmid system (Invitrogen) as described previously (Cao et al., Assay Drug Dev. Technol. 2010, 8, 766-780). Cell lines were maintained in Ham's F12 nutrient mixture containing 10% FBS, blasticidin ([…]; InvivoGen), hygromycin B ([…]; InvivoGen), Zeocin ([…], Invitrogen), and neomycin ([…], Invitrogen) using SelecT automated cell culture system (TAP Biosystems, Cambridge, U.K.). hERG and hCav1.2 channels expression was induced with tetracycline (0.25-1 μg/mL, Invitrogen) at least 24 h prior to the experiment.
hERG currents were recorded using the Qpatch automated patch clamp systems (Sophion Bioscience Inc., North Brunswick, NJ) in the whole (single) cell configuration. hERG expressing CHO-K1 cells were harvested with Detachin (Genlantis) and stored in the modified serum-free SFM-2 media (Life Technologies) at room temperature. The extracellular solution contained (in mM) NaCl (145), KCl (4), MgCl2 (1), CaCl2 (2), and HEPES (10), pH 7.4, with NaOH. The intracellular solution contained KCl (135), MgCl2 (1.75), CaCl2 (5.4), EGTA (10), K2-ATP (4), and HEPES (10), pH 7.2, with KOH. After whole cell configuration was achieved, the cell was held at −90 mV, and a 0.1 s pulse to −50 mV was delivered to measure the leaking current, which was subtracted from the tail current online. Then the cell was depolarized to +20 mV for 4 s (prepulse), followed by a 4 s test pulse to −50 mV to reveal the hERG tail current. To monitor changes in the current amplitude, this voltage protocol was repeatedly applied every 20 s. Test compounds were first diluted in DMSO for six dose-response experiments and then dissolved in the extracellular solution using Freedom EVO liquid handling robotic system (Tecan, Männedorf, Switzerland). The final DMSO concentration in samples was 0.3% v/v. Amitriptyline (Sigma) was tested as a positive control. Data were analyzed using in-house developed MatLab-based program (MathWorks, Natick, MA).

[2] = target: NR2B (Rattus norvegicus (Rat), UniProt Q00960); experiment: NR2B rat cortical neuron calcium influx assay; assay type: cell-based; conditions: rat cortical neurons, glutamate and glycine stimulated calcium influx, 2 hours compound incubation
Text: Example 1: NR2B Rat Cortical Neuron Calcium Influx Assay Protocol
Embryonic day 18 timed pregnant Sprague Dawley rats were euthanized according to Institutional Animal Care and Use Committee (IACUC) protocol. After cutting medially through the skin and exposing the uterus and embryos, fetuses were removed and placed in cold Hibernate medium. Each embryo's brain was extracted and cerebral cortices were isolated by removing the midbrain and meninges. The dissected cortices were then dissociated into the neurons using papain dissociation system (Worthington Biochemical Corporation) according the manufacturer's protocol.
Dissociated neurons were counted and plated into 384-well poly-D-lysine coated plates (Corning® BioCoat™) at a density of 20,000 cells/well in 30 μL of Neurobasal/B27 complete medium. Neurons were cultured at 37° C. for 2 days. On the assay day, medium was removed and cells were incubated with 20 μL/well of calcium dye (Calcium 6 Assay Kit, Molecular Devices) suspended in HBSS with 1.8 mM Ca^2+ (Ca-HBSS) according to the manufacturer's instruction.
Compounds of interest from 10 mM stock were serially diluted into 3× of desired concentrations in 1.8 mM Ca-HBSS, and 10 μL were added to the wells. Compound and the neurons were incubated at 37° C. for 2 hours in the dark.
On FDSS7000EX (Hamamatsu Photonics), a fluorescence measuring instrument, 10 μL of 4× ligand solution containing glutamate and glycine made in 1.8 mM Ca^2+-HBSS were added to each well. The fluorescent signals were collected before and after the addition of ligands for a total of 2 minutes. The data were converted to a ratio of the peak fluorescence to the fluorescence at the beginning of the measurement.
Each data point was measured in duplicates. Dose response curves were used to identify IC50 and maximal inhibition values. IC50 represents the concentration in μM of compound at which there is a half-maximal compound effect. Maximal inhibition of a compound is expressed as a percent of the highest inhibition of activity over a no compound control.

Sequence of NR2B (Q00960 27-1482, other chains not shown): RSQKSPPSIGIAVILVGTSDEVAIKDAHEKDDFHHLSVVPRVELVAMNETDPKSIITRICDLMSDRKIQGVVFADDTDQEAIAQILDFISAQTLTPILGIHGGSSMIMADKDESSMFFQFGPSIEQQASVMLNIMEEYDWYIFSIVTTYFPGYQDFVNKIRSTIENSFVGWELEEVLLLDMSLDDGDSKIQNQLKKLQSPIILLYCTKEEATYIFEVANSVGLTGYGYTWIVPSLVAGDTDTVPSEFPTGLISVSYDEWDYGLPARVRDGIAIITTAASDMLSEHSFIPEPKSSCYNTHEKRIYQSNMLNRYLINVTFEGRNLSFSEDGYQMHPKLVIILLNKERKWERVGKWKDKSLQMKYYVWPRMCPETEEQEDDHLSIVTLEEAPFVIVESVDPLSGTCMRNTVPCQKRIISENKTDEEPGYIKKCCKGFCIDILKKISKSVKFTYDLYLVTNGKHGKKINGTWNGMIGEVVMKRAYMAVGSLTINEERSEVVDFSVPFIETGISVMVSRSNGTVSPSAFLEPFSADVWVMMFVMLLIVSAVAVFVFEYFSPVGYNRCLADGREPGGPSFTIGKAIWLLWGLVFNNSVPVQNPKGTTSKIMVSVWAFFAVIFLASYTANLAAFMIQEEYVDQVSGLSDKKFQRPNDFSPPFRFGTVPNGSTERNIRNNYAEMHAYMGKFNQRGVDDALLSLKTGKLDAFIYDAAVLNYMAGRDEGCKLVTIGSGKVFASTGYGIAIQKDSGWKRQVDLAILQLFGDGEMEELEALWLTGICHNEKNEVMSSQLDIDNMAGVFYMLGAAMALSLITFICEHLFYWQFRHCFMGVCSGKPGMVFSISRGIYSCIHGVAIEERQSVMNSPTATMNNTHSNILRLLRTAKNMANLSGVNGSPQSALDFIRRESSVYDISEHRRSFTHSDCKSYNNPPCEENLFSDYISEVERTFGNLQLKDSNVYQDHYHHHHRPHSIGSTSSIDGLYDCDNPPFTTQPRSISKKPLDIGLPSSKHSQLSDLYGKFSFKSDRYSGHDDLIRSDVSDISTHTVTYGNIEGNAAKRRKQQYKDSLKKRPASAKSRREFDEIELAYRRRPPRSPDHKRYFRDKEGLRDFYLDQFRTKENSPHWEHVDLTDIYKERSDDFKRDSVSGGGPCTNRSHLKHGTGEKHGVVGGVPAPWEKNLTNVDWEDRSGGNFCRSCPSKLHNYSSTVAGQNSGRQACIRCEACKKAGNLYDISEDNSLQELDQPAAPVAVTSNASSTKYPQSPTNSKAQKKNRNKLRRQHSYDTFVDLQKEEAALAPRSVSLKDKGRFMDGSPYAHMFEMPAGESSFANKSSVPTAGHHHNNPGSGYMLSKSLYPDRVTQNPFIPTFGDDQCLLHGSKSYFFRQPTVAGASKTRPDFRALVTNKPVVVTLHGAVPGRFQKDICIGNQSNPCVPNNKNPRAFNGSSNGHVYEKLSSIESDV
Sequence of hERG (Q12809 whole entry): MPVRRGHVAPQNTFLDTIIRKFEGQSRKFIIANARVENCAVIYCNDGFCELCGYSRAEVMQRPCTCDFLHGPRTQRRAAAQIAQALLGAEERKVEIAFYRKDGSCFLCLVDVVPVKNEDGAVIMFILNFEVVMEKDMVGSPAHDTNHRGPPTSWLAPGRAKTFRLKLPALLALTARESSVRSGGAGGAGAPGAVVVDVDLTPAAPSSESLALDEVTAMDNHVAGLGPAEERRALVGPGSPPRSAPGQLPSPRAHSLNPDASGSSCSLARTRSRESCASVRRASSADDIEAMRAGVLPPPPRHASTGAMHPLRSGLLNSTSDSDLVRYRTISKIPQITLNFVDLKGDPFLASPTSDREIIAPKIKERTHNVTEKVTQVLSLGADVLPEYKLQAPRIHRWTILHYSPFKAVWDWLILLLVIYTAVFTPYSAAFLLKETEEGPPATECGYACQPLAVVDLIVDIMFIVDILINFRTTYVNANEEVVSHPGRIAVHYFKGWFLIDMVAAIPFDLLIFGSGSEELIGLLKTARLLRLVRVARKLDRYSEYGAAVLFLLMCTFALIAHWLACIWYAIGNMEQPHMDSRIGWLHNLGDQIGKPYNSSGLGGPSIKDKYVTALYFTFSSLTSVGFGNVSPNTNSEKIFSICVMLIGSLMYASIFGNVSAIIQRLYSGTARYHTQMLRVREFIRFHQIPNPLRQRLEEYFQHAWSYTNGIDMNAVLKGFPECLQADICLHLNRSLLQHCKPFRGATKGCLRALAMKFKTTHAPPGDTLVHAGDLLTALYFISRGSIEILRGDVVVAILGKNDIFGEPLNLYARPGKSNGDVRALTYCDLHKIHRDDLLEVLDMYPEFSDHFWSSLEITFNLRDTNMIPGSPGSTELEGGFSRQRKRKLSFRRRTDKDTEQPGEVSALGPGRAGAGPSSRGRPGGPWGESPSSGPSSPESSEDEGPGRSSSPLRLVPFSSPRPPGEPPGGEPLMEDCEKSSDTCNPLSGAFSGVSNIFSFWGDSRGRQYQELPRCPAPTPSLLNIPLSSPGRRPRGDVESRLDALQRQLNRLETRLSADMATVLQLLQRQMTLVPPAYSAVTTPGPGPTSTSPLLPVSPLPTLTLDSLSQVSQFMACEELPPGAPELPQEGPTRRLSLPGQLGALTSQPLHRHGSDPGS

| IC50 [2] | SMILES | IC50 [1] |
| --- | --- | --- |
|  | Oc1c(F)cc(C(O)CN2C[C@H]3C[C@H](Oc4ccccc4)C[C@H]3C2)cc1F (mixture of isomers) [Mixture of two isomers at benzylic position, reference compound] | 2800 nM |
| 0.74 nM | Oc1ccc(C(O)CN2C[C@H]3C[C@H](Oc4ccccc4F)C[C@@]3(O)C2)nc1 (single isomer, unassigned) [Example 1B] | 14000 nM |
| 1.1 nM | Oc1ccc(C(O)CN2C[C@H]3C[C@H](Oc4ccccc4F)C[C@@]3(O)C2)nc1 (single isomer, unassigned) [Example 1C] | 22000 nM |
| 11 nM | Oc1ccc(C(O)CN2C[C@H]3C[C@H](Oc4ccccc4F)[C@H](O)[C@@]3(O)C2)nc1 (single isomer, unassigned) [Example 2A] |  |
| 2.2 nM | Oc1ccc(C(O)CN2C[C@H]3C[C@H](Oc4ccccc4F)[C@H](O)[C@@]3(O)C2)nc1 (single isomer, unassigned) [Example 2B] |  |
| 770 nM | Oc1ccc(C(O)CN2C[C@@H]3C[C@@H](Oc4ccccc4F)[C@@H](O)[C@]3(O)C2)nc1 (single isomer, unassigned) [Example 2C] |  |
| 950 nM | Oc1ccc(C(O)CN2C[C@@H]3C[C@@H](Oc4ccccc4F)[C@@H](O)[C@]3(O)C2)nc1 (single isomer, unassigned) [Example 2D] |  |
| 31 nM | Oc1ccc(C(O)CN2C[C@H]3C[C@H](Oc4ccccc4)[C@H](O)[C@@]3(O)C2)nc1Cl (single isomer, unassigned) [Example 4C] |  |
| 35 nM | Oc1ccc(C(O)CN2C[C@H]3C[C@H](Oc4ccccc4)[C@H](O)[C@@]3(O)C2)nc1Cl (single isomer, unassigned) [Example 4D] |  |
| 900 nM | Oc1c(F)cc(C(O)CN2C[C@@H]3C[C@@H](Oc4ccccc4)[C@@H](O)[C@]3(O)C2)cc1F (single isomer, unassigned) [Example 5C] |  |
| 3700 nM | Oc1c(F)cc(C(O)CN2C[C@@H]3C[C@@H](Oc4ccccc4)[C@@H](O)[C@]3(O)C2)cc1F (single isomer, unassigned) [Example 5D] |  |
| 2.4 nM | Oc1ccc(C(O)CN2C[C@H]3C[C@H](Oc4ccccc4)C[C@@]3(O)C2)nc1 (single isomer, unassigned) [Example 7C] | 28000 nM |
| 3.2 nM | Oc1ccc(C(O)CN2C[C@H]3C[C@H](Oc4ccccc4)C[C@@]3(O)C2)nc1 (single isomer, unassigned) [Example 7D] | 19000 nM |
|  | Oc1ccc(C(O)CN2C[C@H]3C[C@H](Oc4ccccc4)C[C@H]3C2)nc1 (single isomer, unassigned) [Table 3 from WO 2016/049165 (isomer 1), reference compound] | 2000 nM |
|  | Oc1ccc(C(O)CN2C[C@H]3C[C@H](Oc4ccccc4)C[C@H]3C2)nc1 (single isomer, unassigned) [Table 3 of WO 2016/049165 (isomer 2), reference compound] | 2700 nM |
| > 10000 nM | Oc1ccc(C(O)CN2C[C@@H]3C[C@@H](Oc4ccccc4)[C@@H](O)[C@]3(O)C2)nc1F (some centres unmarked) [Example 3A] |  |
| 24 nM | Oc1ccc(C(O)CN2C[C@H]3C[C@H](Oc4ccccc4)[C@H](O)[C@@]3(O)C2)nc1F (some centres unmarked) [Example 3D] |  |
| > 10000 nM | Oc1ccc(C(O)CN2C[C@@H]3C[C@@H](Oc4ccccc4)[C@@H](O)[C@]3(O)C2)nc1Cl (some centres unmarked) [Example 4A] |  |
| 28 nM | Oc1c(F)cc(C(O)CN2C[C@H]3C[C@H](Oc4ccccc4)[C@H](O)[C@@]3(O)C2)cc1F (some centres unmarked) [Example 5B] |  |
| 14 nM | Oc1c(F)cc([C@@H](O)CN2C[C@H]3C[C@H](Oc4ccccc4)C[C@@]3(O)C2)cc1F [Example 10C] | 22000 nM |
| 6 nM | Oc1c(F)cc([C@H](O)CN2C[C@H]3C[C@H](Oc4ccccc4)C[C@@]3(O)C2)cc1F [Example 10D, (3aS,5S,6aR)-2-((S)-2-(3,5-difluoro-4-hydroxyphenyl)-2-hydroxyethyl)-5-phenoxyhexahydrocyclopenta[c]pyrrol-3a(1H)-ol] | 25000 nM |
| 18 nM | Oc1ccc(CCN2C[C@H]3C[C@H](Oc4ccc(F)cc4F)C[C@@]3(O)C2)nc1 [Example 19] |  |
| 820 nM | Oc1ccc(CCN2C[C@H]3C[C@H](Oc4cccnc4F)C[C@@]3(O)C2)nc1 [Example 20] |  |
